Test results as given in patent US20220195432A9 (priority 2020, published 2022).

What was measured:
[1] = system: SARS-CoV2; assay: SARS-CoV2 infection of human ACE2 mice, paquinimod nasal drop group versus control; type: in vivo
[2] = system: MHV; type: in vivo; details: IFNar knockout mice infected with MHV, paquinimod nasal drop group, FIG. 17
[3] = system: IAV; set-up: species or system mice; details: mouse, in vivo
[4] = system: MHV; type: in vivo, mice
[5] = SARS-CoV2 pneumonia animal model
[6] = MHV-infected lung tissues of IFNar knockout mice, FIG. 18

Q: Which results are given for `CCc1cccc2c1c(O)c(C(=O)N(CC)c1ccccc1)c(=O)n2C` [paquinimod]?
A: replication of SARS-CoV-2 ([1]; FIG. 18): inhibiting replication; inflammation level [1, 5]: decreasing the inflammation level; virus titer in tissues [1, 5]: inhibits the virus titer in tissues; survival rate [2]: increased survival rate; survival rate [3]: no significant difference; inflammation and lung damage caused by inflammation [4, 6]: reducing inflammation and lung damage; lung S100A8 gene expression [4, 6]: not up-regulated; activation of neutrophils caused by coronavirus infection ([4]; coronavirus-infected mice): inhibit the activation of neutrophils; replication of MHV ([4]; lung tissues of IFNar knockout mice, FIG. 18): inhibiting replication
